Measurements reported in ChEMBL document CHEMBL3885861, “Open TG-GATES”.

Species: Rattus norvegicus
Assay: Open TG-GATES - Regimen: Daily Repeat
Format: toxicity, organism-based, Sprague-Dawley
Set-up: regimen Daily Repeat, gender Male, age 6 weeks
Settings: in vivo, po, 60 mg/kg, route gavage, dose level High; for APTT / Bas / Eos / Fbg / Hb / Ht / Lym / MCH / MCHC / MCV / Mono / Neu / PT / Plat / RBC / Ret / WBC: tissue Blood; for KIDNEY_L / KIDNEY_R / KIDNEY_TOTAL: tissue Kidney; for LIVER: tissue Liver; for A/G / ALP / ALT / AST / BUN / CRE / Ca / Cl / DBIL / GLC / IP / K / LDH / Na / PL / RALB / TBIL / TC / TG / TP / gamma-GTP: tissue Plasma

For `CC(C)NNC(=O)c1ccncc1` [IPRONIAZID], the TERMINAL_BW (72 h, time 3 day) was 184.6 g, the APTT (72 h, time 3 day) was 22.8 s and the Bas (72 h, time 3 day) was 0%. For the same compound, the Eos (72 h, time 3 day) was 0.8%, the Fbg (72 h, time 3 day) was 317.4 mg/dL and the Hb (72 h, time 3 day) was 13.1 g/dL. It also gave a Ht (72 h, time 3 day) of 38.2%, a Lym (72 h, time 3 day) of 86.2% and an MCH (72 h, time 3 day) of 20.5 pg. For the same compound, the MCHC (72 h, time 3 day) was 34.4%, the MCV (72 h, time 3 day) was 59.6 fL and the Mono (72 h, time 3 day) was 1.6%. The Neu (72 h, time 3 day) was 10.8%, the PT (72 h, time 3 day) was 16.9 s and the Plat (72 h, time 3 day) was 145 x10_4/uL. For the same compound, the RBC (72 h, time 3 day) was 640.8 x10_4/ul, the Ret (72 h, time 3 day) was 5.5% and the WBC (72 h, time 3 day) was 90.9 x10_2/uL. The KIDNEY_L (72 h, time 3 day) was 0.9 g, the KIDNEY_R (72 h, time 3 day) was 0.9 g and the KIDNEY_TOTAL (72 h, time 3 day) was 1.7 g. For the same compound, the LIVER (72 h, time 3 day) was 8.1 g, the A/G (72 h, time 3 day) was 1.2 and the ALP (72 h, time 3 day) was 1455.4 IU/L. The ALT (72 h, time 3 day) was 34 IU/L, the AST (72 h, time 3 day) was 78.2 IU/L and the BUN (72 h, time 3 day) was 20.4 mg/dL. It also gave a CRE (72 h, time 3 day) of 0.2 mg/dL, a Ca (72 h, time 3 day) of 10.2 mg/dL and a Cl (72 h, time 3 day) of 108.2 meq/L. For the same compound, the DBIL (72 h, time 3 day) was 0.002 mg/dL, the GLC (72 h, time 3 day) was 175.4 mg/dL and the IP (72 h, time 3 day) was 7.2 mg/dL. It also gave a K (72 h, time 3 day) of 4.2 meq/L, an LDH (72 h, time 3 day) of 305.2 IU/L and a Na (72 h, time 3 day) of 143.4 meq/L. It also gave a PL (72 h, time 3 day) of 149.6 mg/dL, an RALB (72 h, time 3 day) of 3.2 g/dL and a TBIL (72 h, time 3 day) of 0.04 mg/dL. It also gave a TC (72 h, time 3 day) of 89.6 mg/dL, a TG (72 h, time 3 day) of 61.2 mg/dL and a TP (72 h, time 3 day) of 5.8 g/dL. It also gave a gamma-GTP (72 h, time 3 day) of 1.2 IU/L, a TERMINAL_BW ([…], time 7 day) of 201.3 g and a TERMINAL_BW ([…], time 14 day) of 239 g. For the same compound, the TERMINAL_BW ([…], time 28 day) was 299.7 g, the APTT ([…], time 7 day) was 21.6 s and the Bas ([…], time 7 day) was 0%. It also gave an Eos ([…], time 7 day) of 1%, a Fbg ([…], time 7 day) of 275.8 mg/dL and a Hb ([…], time 7 day) of 11.7 g/dL. It also gave a Ht ([…], time 7 day) of 33.9%, a Lym ([…], time 7 day) of 77.2% and an MCH ([…], time 7 day) of 20.4 pg. The MCHC ([…], time 7 day) was 34.4%, the MCV ([…], time 7 day) was 59.3 fL and the Mono ([…], time 7 day) was 2.2%. It also gave a Neu ([…], time 7 day) of 19%, a PT ([…], time 7 day) of 16.3 s and a Plat ([…], time 7 day) of 121.7 x10_4/uL. It also gave an RBC ([…], time 7 day) of 571.6 x10_4/ul, a Ret ([…], time 7 day) of 7.4% and a WBC ([…], time 7 day) of 126.5 x10_2/uL. For the same compound, the APTT ([…], time 14 day) was 21.3 s, the Bas ([…], time 14 day) was 0% and the Eos ([…], time 14 day) was 1%. It also gave a Fbg ([…], time 14 day) of 302.2 mg/dL, a Hb ([…], time 14 day) of 11.4 g/dL and a Ht ([…], time 14 day) of 35.7%. The Lym ([…], time 14 day) was 78%, the MCH ([…], time 14 day) was 22.2 pg and the MCHC ([…], time 14 day) was 31.8%. The MCV ([…], time 14 day) was 69.8 fL, the Mono ([…], time 14 day) was 2% and the Neu ([…], time 14 day) was 18.4%. It also gave a PT ([…], time 14 day) of 16.5 s, a Plat ([…], time 14 day) of 115.4 x10_4/uL and an RBC ([…], time 14 day) of 511.4 x10_4/ul. For the same compound, the Ret ([…], time 14 day) was 19.5%, the WBC ([…], time 14 day) was 131.9 x10_2/uL and the APTT ([…], time 28 day) was 21.5 s. The Bas ([…], time 28 day) was 0%, the Eos ([…], time 28 day) was 0.8% and the Fbg ([…], time 28 day) was 352.8 mg/dL. For the same compound, the Hb ([…], time 28 day) was 11.9 g/dL, the Ht ([…], time 28 day) was 35% and the Lym ([…], time 28 day) was 77%. It also gave an MCH ([…], time 28 day) of 21.6 pg, an MCHC ([…], time 28 day) of 33.9% and an MCV ([…], time 28 day) of 63.7 fL. For the same compound, the Mono ([…], time 28 day) was 2.2%, the Neu ([…], time 28 day) was 18.8% and the PT ([…], time 28 day) was 16.9 s. For the same compound, the Plat ([…], time 28 day) was 108.7 x10_4/uL, the RBC ([…], time 28 day) was 550.2 x10_4/ul and the Ret ([…], time 28 day) was 12.4%. It also gave a WBC ([…], time 28 day) of 121.5 x10_2/uL, a KIDNEY_L ([…], time 7 day) of 1 g and a KIDNEY_R ([…], time 7 day) of 0.9 g. For the same compound, the KIDNEY_TOTAL ([…], time 7 day) was 1.9 g, the KIDNEY_L ([…], time 14 day) was 1 g and the KIDNEY_R ([…], time 14 day) was 1 g. The KIDNEY_TOTAL ([…], time 14 day) was 2.1 g, the KIDNEY_L ([…], time 28 day) was 1.2 g and the KIDNEY_R ([…], time 28 day) was 1.2 g. For the same compound, the KIDNEY_TOTAL ([…], time 28 day) was 2.4 g, the LIVER ([…], time 7 day) was 8.5 g and the LIVER ([…], time 14 day) was 10.1 g. For the same compound, the LIVER ([…], time 28 day) was 11.8 g, the A/G ([…], time 7 day) was 1.2 and the ALP ([…], time 7 day) was 1212.6 IU/L. The ALT ([…], time 7 day) was 34.4 IU/L, the AST ([…], time 7 day) was 82 IU/L and the BUN ([…], time 7 day) was 22.2 mg/dL. It also gave a CRE ([…], time 7 day) of 0.2 mg/dL, a Ca ([…], time 7 day) of 10.1 mg/dL and a Cl ([…], time 7 day) of 108 meq/L. It also gave a DBIL ([…], time 7 day) of 0.024 mg/dL, a GLC ([…], time 7 day) of 180.6 mg/dL and an IP ([…], time 7 day) of 7 mg/dL. For the same compound, the K ([…], time 7 day) was 4 meq/L, the LDH ([…], time 7 day) was 241.4 IU/L and the Na ([…], time 7 day) was 142.8 meq/L. The PL ([…], time 7 day) was 151.6 mg/dL, the RALB ([…], time 7 day) was 3.1 g/dL and the TBIL ([…], time 7 day) was 0.086 mg/dL. It also gave a TC ([…], time 7 day) of 85.8 mg/dL, a TG ([…], time 7 day) of 55.2 mg/dL and a TP ([…], time 7 day) of 5.6 g/dL. The gamma-GTP ([…], time 7 day) was 1.6 IU/L, the A/G ([…], time 14 day) was 1.2 and the ALP ([…], time 14 day) was 1104 IU/L. For the same compound, the ALT ([…], time 14 day) was 41 IU/L, the AST ([…], time 14 day) was 79 IU/L and the BUN ([…], time 14 day) was 19.6 mg/dL. The CRE ([…], time 14 day) was 0.2 mg/dL, the Ca ([…], time 14 day) was 10 mg/dL and the Cl ([…], time 14 day) was 106.8 meq/L. The DBIL ([…], time 14 day) was 0.01 mg/dL, the GLC ([…], time 14 day) was 174 mg/dL and the IP ([…], time 14 day) was 7 mg/dL. For the same compound, the K ([…], time 14 day) was 4.1 meq/L, the LDH ([…], time 14 day) was 201.2 IU/L and the Na ([…], time 14 day) was 141.4 meq/L. The PL ([…], time 14 day) was 165.8 mg/dL, the RALB ([…], time 14 day) was 3 g/dL and the TBIL ([…], time 14 day) was 0.058 mg/dL. It also gave a TC ([…], time 14 day) of 92.4 mg/dL, a TG ([…], time 14 day) of 82.8 mg/dL and a TP ([…], time 14 day) of 5.6 g/dL. The gamma-GTP ([…], time 14 day) was 1.8 IU/L, the A/G ([…], time 28 day) was 1.1 and the ALP ([…], time 28 day) was 1056.8 IU/L. For the same compound, the ALT ([…], time 28 day) was 25 IU/L, the AST ([…], time 28 day) was 66.8 IU/L and the BUN ([…], time 28 day) was 18.6 mg/dL. For the same compound, the CRE ([…], time 28 day) was 0.2 mg/dL, the Ca ([…], time 28 day) was 10.2 mg/dL and the Cl ([…], time 28 day) was 105.8 meq/L. The DBIL ([…], time 28 day) was 0.004 mg/dL, the GLC ([…], time 28 day) was 182 mg/dL and the IP ([…], time 28 day) was 6.6 mg/dL. It also gave a K ([…], time 28 day) of 4.1 meq/L, an LDH ([…], time 28 day) of 156.6 IU/L and a Na ([…], time 28 day) of 141.8 meq/L. The PL ([…], time 28 day) was 149.6 mg/dL, the RALB ([…], time 28 day) was 3.1 g/dL and the TBIL ([…], time 28 day) was 0.09 mg/dL. The TC ([…], time 28 day) was 87 mg/dL, the TG ([…], time 28 day) was 76.6 mg/dL and the TP ([…], time 28 day) was 6 g/dL. It also gave a gamma-GTP ([…], time 28 day) of 2.4 IU/L.
